According to publication PMC11793105, “A kalihinol analog disrupts apicoplast function and vesicular trafficking in P. falciparum malaria” (Science (New York, N.Y.), 2024):
“And” between values parts separate entries of the source, which are not always exact repeats. Identical values can stand only once. Like-named read-outs stand apart in the source and are kept apart here.

Assays:
[1] = Pharmacokinetic profile at 25 and 50 mg/Kg (Table S9b); assay type: in vivo, Male CD1 mouse; details: for Cmax: oral, blood; for AUC(0-inf): read-out: AUCINF_obs
Description: An Acquity ultra-performance liquid chromatography (UPLC) system (Waters Corp., Milford, MA, USA) couple to a triple quadrupole mass spectrometer (API 4000, AB Sciex, Foster City, CA, USA) was used for the analysis ([99]).
Blood concentration time data were analyzed by Non-Compartmental PK analysis using Phoenix WinNonlin software (Certara, NY, US) to calculate PK parameters. […]
were housed in cages (Tecniplast®). The cages contained autoclaved dust free corncob bedding […]
provided ad libitum. Environmental conditions: Photoperiods, simulated dawn/dusk facility, were […]
The temperature range was 22± 2 °C. […]
route, once a day, 10ml/kg). […]
Two mice were treated at 50
To confirm the data, 3 animals per dose
(hematology, clinical chemistry, and necropsy). Additionally in the same animals with the same […]
determination of blood level exposures and pharmacokinetic analysis. […]
Peripheral blood […]
samples (15 µL) were taken at frequent intervals, mixed with 30 µL of H2O milli Q and immediately frozen on dry ice. The frozen samples were stored at −80 °C until analysis. Vehicle-treated mice experienced the same blood-sampling regimen (table S9, S10).
Bioanalysis and pharmacokinetics analysis: LC-MS
Bioanalysis of in vivo samples: Sample pretreatment Before the analysis 15ul of blood samples were defrost at ambient temperature and mixture with 200ul of ACN:MeOH (80:20). After protein precipitation samples were filtered by 0.45um filter plate (Multiscreen Solvinert 0.45um FTPE, Millipore). The 2ul TFA (Trifluoroacetic acid, sigmaAldrich) were added to each filtered sample in order to derivatize the compound to formamide analogue. This process occurs spontaneously.
LC-MS analysis An Acquity Ultra-Performance liquid chromatography (UPLC) system (Waters Corp., Milford, MA, USA) couple to a triple quadrupole mass spectrometer (API 4000™, AB Sciex, Foster City, CA, USA) was used for the analysis. The MS/MS transition was 311.340 / […]
The chromatographic separation was carried out at 0.4ml/min in a Acquity UPLC™ BEH C18 column (50x2.1 mm i.d., […]; Waters Corp.) at 40 °C with Acetonitrile (sigmaAldrich) and 0.1% formic acid as eluents.
Pharmacokinetic analysis Blood concentration time data were analyzed by Non-Compartmental PK analysis using Phoenix WinNonlin software (Certara NY, US) to calculate PK parameters. The maximum observed concentration (Cmax) and the time to reach it (Tmax), were determined. The area under concentration-time curve from dosing at time zero to the last measured concentration […]
time (AUClast) and the total area under concentration-time curve from time zero extrapolated to infinity (AUCinf), were calculated using a linear trapezoidal rule. […]

[2] = Time course stability to conditions of varying pH (mass spectrometric assay); assay type: physicochemical; details: aqueous buffers pH 2-7, room temperature, 10 min to 16 h; stable down to pH 4
Description: removed under reduced pressure in a rotary evaporator then under high vacuum to afford bis-formamide GB-209-3 as a colorless oil that solidified upon standing (5.2 mg, 96% yield).
Note: GB-209-3 was observed as four different amide rotamer ic species (estimated ratio = 54:35:7:4) under ambient conditions, complicating NMR spectroscopic analysis:
Isonitriles are known to be somewhat reactive functional groups. While previous studies […]
stability,3 we also wanted to account for the potential stomach-acid-catalyzed hydrolysis of the isonitriles in the course of in vivo experiments. We developed a mass spectrometric assay to understand the acid stability of the isonitriles with respect to hydrolysis to the corresponding formamides. […]
Supporting Table 1. a. Ionization (ES+) and b. inlet parameters for quantification of MED6-189 and formamides GB-209-2, and GB-209-3. […]
GB-209-2 and GB-209-3 were determined for each aliquot and plotted over time for respective pH values in the figure below describing the time course stability of MED6 -189 to conditions of varying pH over time via quantitative analysis of formamide products GB -209-2 and GB-209-3.
Time course stability of MED6 -189 to conditions of varying pH over time via quantitative analysis of formamide products GB -209-2 and GB-209-3. […]

[3] = male, CD1, mouse, whole blood, po, 25 mg/kg, Mean
[4] = male, CD1, mouse, whole blood, po, 50 mg/kg, Mean
[5] = male, CD1, mouse, whole blood, po, 50 mg/kg, individual mice

**Q.** With `[C-]#[N+][C@]1(C)CC[C@H]2[C@@H]([C@@H](C(C)C)CC[C@]2(C)[N+]#[C-])[C@H]1O` [MED6-189] as the molecule, how does the AUCINF_D_obs ([1]; 25 mg/Kg, Mean) read?
**A.** 1505 kg·ng·h/mL/mg

**Q.** What about the AUC_%Extrap_obs ([1]; 25 mg/Kg, Mean) of the same molecule?
**A.** 0.955%

**Q.** And the AUClast_D ([1]; 25 mg/Kg, Mean)?
**A.** 1491.7 kg·ng·h/mL/mg

**Q.** And the Cmax_D ([1]; 25 mg/Kg, Mean)?
**A.** 188.6 kg·ng/mL/mg

**Q.** And the HL_Lambda_z ([1]; 25 mg/Kg, Mean)?
**A.** 3.711 h

**Q.** And the AUCINF_D_obs ([1]; 25 mg/Kg, individual mice)?
**A.** 2105.77 kg·ng·h/mL/mg and 904.22 kg·ng·h/mL/mg

**Q.** And the AUCINF_obs ([1]; 25 mg/Kg, individual mice)?
**A.** 52644.4 ng·h/mL and 22605.6 ng·h/mL

**Q.** What about the AUC_%Extrap_obs ([1]; 25 mg/Kg, individual mice) of the same molecule?
**A.** 0.78% and 1.13%

**Q.** And the AUClast ([1]; 25 mg/Kg, individual mice)?
**A.** 52232.7 ng·h/mL and 22350.5 ng·h/mL

**Q.** And the AUClast_D ([1]; 25 mg/Kg, individual mice)?
**A.** 2089.31 kg·ng·h/mL/mg and 894.02 kg·ng·h/mL/mg

**Q.** What about the Cmax_D ([1]; 25 mg/Kg, individual mice) of the same molecule?
**A.** 232.4 kg·ng/mL/mg and 144.8 kg·ng/mL/mg

**Q.** And the HL_Lambda_z ([1]; 25 mg/Kg, individual mice)?
**A.** 3.31 h and 4.11 h

**Q.** What about the Cmax ([1]; 25 mg/Kg, individual mice 1 and 2) of the same molecule?
**A.** 3620 ng/mL

**Q.** And the AUCINF_D_obs ([1]; 50 mg/Kg, Mean)?
**A.** 2099.8 kg·ng·h/mL/mg

**Q.** And the AUC_%Extrap_obs ([1]; 50 mg/Kg, Mean)?
**A.** 4.415%

**Q.** And the AUClast_D ([1]; 50 mg/Kg, Mean)?
**A.** 2014.32 kg·ng·h/mL/mg

**Q.** And the Cmax_D ([1]; 50 mg/Kg, Mean)?
**A.** 158.4 kg·ng/mL/mg

**Q.** And the HL_Lambda_z ([1]; 50 mg/Kg, Mean)?
**A.** 4.536 h

**Q.** What about the AUCINF_D_obs ([1]; 50 mg/Kg, individual mice) of the same molecule?
**A.** 1882 kg·ng·h/mL/mg and 2317.54 kg·ng·h/mL/mg

**Q.** And the AUCINF_obs ([1]; 50 mg/Kg, individual mice)?
**A.** 115877 ng·h/mL

**Q.** And the AUC_%Extrap_obs ([1]; 50 mg/Kg, individual mice)?
**A.** 7.74% and 1.09%

**Q.** What about the AUClast ([1]; 50 mg/Kg, individual mice) of the same molecule?
**A.** 114617 ng·h/mL

**Q.** What about the AUClast_D ([1]; 50 mg/Kg, individual mice) of the same molecule?
**A.** 1736.3 kg·ng·h/mL/mg and 2292.34 kg·ng·h/mL/mg

**Q.** And the Cmax_D ([1]; 50 mg/Kg, individual mice)?
**A.** 137.2 kg·ng/mL/mg and 179.6 kg·ng/mL/mg

**Q.** And the HL_Lambda_z ([1]; 50 mg/Kg, individual mice)?
**A.** 5.74 h and 3.33 h

**Q.** What about the Cmax ([1]; 50 mg/Kg, individual mice 1 and 2) of the same molecule?
**A.** 8980 ng/mL

**Q.** And the AUC(0-t) [1, 3]?
**A.** 37300 ng·h/mL

**Q.** What about the AUC(0-inf) [1, 3] of the same molecule?
**A.** 37600 ng·h/mL

**Q.** And the Cmax ([1]; male, CD1, mouse, whole blood, po, 25 mg/kg, Mean of 2 mice, read-out: Cmax)?
**A.** 4720 ng/mL

**Q.** And the Cmax ([1]; male, CD1, mouse, whole blood, po, 25 mg/kg, individual mice 1 and 2, read-out: Cmax)?
**A.** 5810 ng/mL

**Q.** What about the AUC(0-t) [1, 4] of the same molecule?
**A.** 101000 ng·h/mL

**Q.** What about the AUC(0-inf) [1, 4] of the same molecule?
**A.** 105000 ng·h/mL

**Q.** And the AUC(0-t) [1, 5]?
**A.** 86800 ng·h/mL

**Q.** What about the AUC(0-inf) [1, 5] of the same molecule?
**A.** 94100 ng·h/mL

**Q.** What about the Cmax ([1]; male, CD1, mouse, whole blood, po, 50 mg/kg, Mean of 2 mice, read-out: Cmax) of the same molecule?
**A.** 7920 ng/mL

**Q.** What about the Cmax ([1]; male, CD1, mouse, whole blood, po, 50 mg/kg, individual mice 1 and 2, read-out: Cmax) of the same molecule?
**A.** 6860 ng/mL

**Q.** What about the Tmax ([1]; male, CD1, mouse, whole blood, po, 25 mg/Kg, individual mice) of the same molecule?
**A.** 4 h

**Q.** And the Tmax ([1]; male, CD1, mouse, whole blood, po, 50 mg/Kg, individual mice)?
**A.** 7 h

**Q.** And the “stability to aqueous acidic conditions (hydrolysis to formamides)” value [2]?
**A.** reasonable stability
